The source of these data is patent publication US20230077514A1, “METHODS FOR MODULATING CALORIE CONSUMPTION” (Duke University, priority 2020, published 2023).

For one test, the system named is vagal nodose neurons. Put plainly: Cultured dissociated vagal neurons stimulated with sugars. The conditions noted are these: D-glucose 20 mM; for response of vagal nodose neurons cultured alone: sucralose 2 mM, maltodextrin 1%, n = 59 neurons. The class given is cell-based. The procedure:
(§1) Dissociated vagal neurons were cultured to test whether the neurons are able to sense the different sugars. The neurons were stimulated with three consecutive sugars (D-glucose [20 mM], sucralose [2 mM], and maltodextrin [1%]) followed by KCI [50 mM] as an activity control. […] To determine how individual neuropod cells respond to taste and calorie properties, cultured Cck_tdTomato+ cells were stimulated with the same sugars, counterbalancing for order effect, and calcium activity was recorded using KCI [50 mM] as a final activity control. Of the 49 cells imaged, 18.4% responded to all types of sugar, 36.7% responded to only D-glucose, 20.4% to only maltodextrin, and 12.2% to only sucralose (n = 49 cells, n = 3 mice; FIG. 13). […] Cck_tdTomato+ cells were co-cultured with nodose neurons to determine whether neuropod cells were transducing different sugar stimuli onto the same vagal neurons. Patch-clamp electrophysiology, in voltage-clamp, was used to record neuron activity in response to neuropod cell exposure to D-glucose [20 mM] and sucralose [2 mM] in alternating order (FIG. 14). From the 18 pairs recorded, neuropod cells transduced the sugar stimuli and elicited excitatory post-synaptic currents in connected neurons in response to both stimuli in 6 pairs, to only D-glucose in 8 pairs, and to sucralose alone in 4 pairs (FIG. 14). Thus, neuropod cells are heterogenous in their response and transduction of caloric and non-caloric stimuli to vagal neurons.

Another test has as its system cervical vagus nerve. The test is described as follows: Whole nerve electrophysiology of the cervical vagus during duodenal sugar perfusion. The class given is in vivo, mice. As to conditions: wild-type mice; sucrose 300 mM, D-glucose 150 mM, fructose 150 mM, galactose 150 mM, maltodextrin 8%, α-MGP 150 mM, sucralose 15 mM, acesulfame K 15 mM, saccharin 15 mM. The procedure: FIG. 1. […] Model: sugars are perfused into the duodenal lumen while nerve activity is recorded from the cervical vagus of anesthetized wild-type mice.
The proximal duodenum was perfused with sugars, thus bypassing any gustatory or gastric activation. Sugars were tested based on the following properties: both caloric content and sweet taste (sucrose [300 mM], D-glucose [150 mM], […], galactose [150 mM]), calorie-only (maltodextrin [8%], alpha-methylglucopyranoside (α-MGP) [150 mM]), or taste-only (sucralose [15 mM], acesulfame-K [15 mM], saccharin [15 mM]) (FIG. 1, FIG. 2, FIG. 3, FIG. 4).

For the next test, the system named is Cck_tdTomato+ cells. Put plainly: Calcium activity of cultured Cck_tdTomato+ cells stimulated with sugars. The conditions noted are these: D-glucose 20 mM, sucralose 2 mM, maltodextrin 1%; 49 cells. It is filed as cell-based, mice. The procedure: as §1, with “Thus, neuropod cells are heterogenous in their response and transduction of caloric and non-caloric stimuli to vagal neurons.” left out

The subject of test [1] is enteroendocrine cells and nodose ganglia neurons. The conditions noted are these: 10 mM glucose; cited from earlier work.
Test [2] has as its system nodose neurons co-cultured with Cck_tdTomato+ cells. The test is described as follows: Patch-clamp electrophysiology of nodose neurons co-cultured with Cck_tdTomato+ cells. The class given is cell-based. As to conditions: D-glucose 20 mM, sucralose 2 mM; for peak excitatory post-synaptic currents, D-glucose vs sucralose: n = 18 pairs; for co-culture pairs responding to this stimulus only / co-culture pairs with excitatory post-synaptic currents in response to only this stimulus: of 18 pairs. The procedure:
as §1

For another test, the system named is duodenal Cck cells. Put plainly: Vagal recording with intraluminal 532 nm laser silencing of duodenal Cck (neuropod) cells. The class given is in vivo. The conditions noted are these: Cck_Halo mice; sucrose 300 mM, α-mgp 150 mM, sucralose 15 mM. As to the method:
FIG. 9. Model: intraluminal 532 nm laser activates NpH3 chloride channels to silence duodenal Cck cells in CckCRE_NpH3 mice.
Using whole nerve electrophysiology of the cervical vagus nerve, it was confirmed that vagal activity increases in the presence of luminal sugars. Kaelberer et al., Science 361 (6408) (2018). The proximal duodenum was perfused with sugars, thus bypassing any gustatory or gastric activation. Sugars were tested based on the following properties: both caloric content and sweet taste (sucrose [300 mM], D-glucose [150 mM], fructose [150 mM], galactose [150 mM]), calorie-only (maltodextrin [8%], alpha-methylglucopyranoside (α-MGP) [150 mM]), or taste-only (sucralose [15 mM], acesulfame-K [15 mM], saccharin [15 mM]) (FIG. 1, FIG. 2, FIG. 3, FIG. 4). […] Intraluminal application of the 532 nm laser eliminated the vagal response to sucrose [300 mM], α-mgp [150 mM], and sucralose [15 mM] (n ≥ 5, p < 0.001) (FIG. 10 and FIG. 11; laser activation and wild-type controls). Thus, neuropod cells are required to sense both the calorie and taste properties of sugar and communicate these signals onto vagal neurons.
Cck neuropod cells in the duodenum express receptors for fatty acids (FIG. 69), analyzed by bulk sequencing Cck-positive and Cck-negative epithelial cells in the duodenum of CckGFP mice. Thus, CCK cells in the duodenum may signal the presence of fatty acids to the vagus nerve. To test this, the silencing optogenetic channel was expressed in Cck cells of mice. […] In the duodenum, there is overlap in cells expressing CCK and the vesicular glutamate transporter 1 (Vglut1), required for release of the neurotransmitter glutamate. To test whether glutamate is required as a signaling molecule for fat transduction to the vagus nerve, a cocktail of glutamate receptor inhibitors was perfused through the duodenum of wild type mice. Blockade of ionotropic and metabotropic glutamate receptors blocked vagal firing elicited by glutamate (FIG. 71). […] In an initial baseline test, mice freely explore an arena for 20 minutes, during which their position in the arena measured. […]

Test [3] relates to murine small intestinal organoids. The test is described as follows: Glutamate release assay on murine small intestinal organoids. The class given is cell-based, mouse. As to conditions: sucrose 300 mM, α-MGP 150 mM, sucralose 15 mM; PBS control 2.632 ± 1.280. The procedure: Slc5a1+ Cck-GFP cells express transcripts for the vesicular glutamate transporters Slc17a6, Slc17a7, Slc17a8 and the excitatory neurotransmitter transporters Slc1a1, Slc1a2, and Slc1a3 (FIG. 4). […] A glutamate release assay was performed on murine small intestinal organoids to determine if glutamate release was stimuli specific (FIG. 24-left). α-MGP was used for a caloric stimulus with no sweet taste, because it is not metabolized once it enters the cell and thus allowed for isolation of cell entry. After nutrient stimulation, the glutamate concentration in the supernatant was 2.632 ± 1.280 ng/µL for PBS control, 13.460 ± 1.724 ng/µL for sucrose [300 mM], 18.183 ± 7.904 ng/µL for α-MGP [150 mM], and 6.053 ± 1.169 ng/µL for sucralose [15 mM].

As for `O=C[C@H](O)[C@@H](O)[C@H](O)[C@H](O)CO` [D-glucose], the “response of vagal nodose neurons cultured alone” value with vagal nodose neurons is listed as “do not respond”. Moreover, the “neurons with a (small) response” value in the test with vagal nodose neurons (59 neurons) is recorded as 2 of 59. Further, in the test on cervical vagus nerve, the “vagal response (firing) to intraduodenal sugar vs baseline” value is on record as “responds significantly”. Besides, in the test on Cck_tdTomato+ cells, the “cells responding to only this sugar” value is listed as 36.7%. For the same molecule, in test [1], the “activation of a nodose neuron by itself” value is “did not activate”; the “response of connected neuron to stimulus applied to the enteroendocrine cell” value was “induced excitatory post-synaptic potentials and action potential spikes”. Moreover, in test [2], the “peak excitatory post-synaptic currents, D-glucose vs sucralose” value is recorded as “not significantly different”; the “co-culture pairs responding to this stimulus only” value was 44.4%; the “co-culture pairs with excitatory post-synaptic currents in response to only this stimulus” value was determined as 8 pairs.
For the molecule `OC[C@H]1O[C@H](O[C@]2(CCl)O[C@H](CCl)[C@@H](O)[C@@H]2O)[C@H](O)[C@@H](O)[C@H]1Cl` [sucralose], the “response of vagal nodose neurons cultured alone” value in the test with vagal nodose neurons is given as “do not respond”. In the test on cervical vagus nerve, the “vagal response (firing) to intraduodenal sugar vs baseline” value was “responds significantly”. The “vagal response with Cck cells silenced by 532 nm laser” value with duodenal Cck cells is “eliminated”. In addition, in test [3], the “glutamate concentration in the supernatant after stimulation” value worked out at 6.053 ± 1.169 ng/µL. Besides, the “cells responding to only this sugar” value with Cck_tdTomato+ cells was 12.2%. In test [2], the “peak excitatory post-synaptic currents, D-glucose vs sucralose” value is “not significantly different”; the “co-culture pairs responding to this stimulus only” value was 22.2%; the “co-culture pairs with excitatory post-synaptic currents in response to only this stimulus” value was found to be 4 pairs.
